# Assay results as given in patent US20180085373A1, “THERAPEUTIC AND/OR PROPHYLACTIC AGENT FOR LEWY BODY DISEASE” (KYOWA HAKKO KIRIN CO., LTD., priority 2015, published 2018).
# Columns and labels:
# Slc:ICR mice [1] = test: Gait test (CatWalk XT), evaluation of motor function in NAC61-95 α-synucleinopathy model; assay type: in vivo; conditions: NAC61-95-treated mice
# Method: (§1) By reference to articles (Science, 338, p. 949 (2012); Behavioral Brain Research, 208, p. 274 (2010)), an animal model capable of confirming a therapeutic and/or prophylactic effect on α-synucleinopathy (for example, Lewy body disease, the Lewy body disease includes cognitive impairment in Parkinson's disease, diffuse Lewy body disease, dementia with Lewy bodies, movement disorder associated with Lewy body disease and the like) was prepared as follows.
# (§2) The cognitive function was evaluated using a spontaneous alternation task. The spontaneous alternation task is known as an evaluation system of cognitive function utilizing properties of an animal to willingly explore a novel environment (Neuroscience and Biobehavioral Reviews 28, p. 497 (2004)). That is, if the animal remembers the arm into which it entered previously in an exploration in a Y-maze apparatus, the behavior of spontaneous entry into a different arm was expressed by an alternation behavior rate, and used as an index of cognitive function. The motor function was evaluated by analyzing gait function under natural walk conditions using a gait function/automatic gait analysis system.
# (§3) NAC61-95 (custom, Sigma) was dissolved in PBS to prepare 4 μg/μL NAC61-95 solution.
# (§4) Under pentobarbital (Somnopentyl, Kyoritsuseiyaku) (50 mg/kg, i.p.) anesthesia, 5 μL of NAC61-95 solution was injected using a Hamilton syringe (10 μL) equipped with a double needle (27G, needle length 3 mm) into the right lateral cerebral ventricle of Slc:ICR mice (male, Japan SLC) over about 1 minute, and stood for 1 minute to induce cognitive impairment and/or movement disorder.
# As for a sham treatment group, under pentobarbital anesthesia, 5 μL of PBS was injected using a Hamilton syringe equipped with a double needle into the right lateral cerebral ventricle of Slc:ICR mice over about 1 minute, and stood for 1 minute.
# A gait function/automatic gait analysis system (CatWalk XT, ver.9.1, Noldus) was used. The system consisted of a walkway with pressure-sensitive luminescent glass and a light source, a luminescent ceiling, a highly sensitive high-speed camera and an analysis software, and the gait was analyzed by digitizing the brightness of the light emitted by the pressure-sensitive luminescent glass in response to the pressure. The gait data was automatically recorded and analyzed by the analysis software only when a mouse moved straight forward without stopping in the predetermined area on the walkway.
# The mice were brought into the experiment room with light off and habituated for not less than 1 hour. A mouse was placed in the apparatus, and allowed to walk freely until 6 running data were obtained for each individual. The first three running data amenable to analyze were taken up, and their mean was calculated.
# At 60 minutes before the test, istradefylline (suspended in 0.5 w/v % aqueous MC solution, and prepared to 0.5 mL per 100 g body weight of a mouse on the administration day) was orally administered at a dose of 1.0 mg/kg, or a vehicle (0.5 w/v % aqueous MC solution) free of the test compound was orally administered at 0.5 mL per 100 g body weight of a mouse on the administration day.
# Slc:ICR mice [2] = test: Spontaneous alternation task test (Y-maze), evaluation of cognitive function in NAC61-95 α-synucleinopathy model; assay type: in vivo; conditions: NAC61-95-treated mice
# Method: as §1, §2, §3
# as §4, with “disorder. […]” for “disorder.”
# Mice were brought into the experiment room from the previous day of test for habituation. […] Entry of all four limbs of a mouse into one arm was defined as entry into the arm, and the order of entry of the mouse into the arm was recorded. A behavior of successive entry into all three different arms was defined as spontaneous alternation behavior, and the percentage of alternation behavior was calculated by the following calculation formula. […]
# [3] = 1.0 mg/kg orally 60 minutes before the test, mean±standard error
compound,measurement,setting,value
CCn1c(=O)c2c(nc(/C=C/c3ccc(OC)c(OC)c3)n2C)n(CC)c1=O [istradefylline],gait pattern (mean) AA,"Slc:ICR mice [1]; AA: right forepaw→right hindpaw→left forepaw→left hindpaw, 1.0 mg/kg orally, mean±standard error",4.3 ± 2.8
same,gait pattern (mean) AB,"Slc:ICR mice [1]; AB: right forepaw→left hindpaw→left forepaw→right hindpaw, 1.0 mg/kg orally, mean±standard error",76.7 ± 7.1
same,gait pattern (mean) CA,"Slc:ICR mice [1]; CA: right forepaw→left forepaw→right hindpaw→left hindpaw, 1.0 mg/kg orally, mean±standard error",10.3 ± 3.6
same,gait pattern (mean) CB,"Slc:ICR mice [1]; CB: right forepaw→left hindpaw→right hindpaw→left forepaw, 1.0 mg/kg orally, mean±standard error",8.7 ± 4.3
same,change in gait pattern CB,Slc:ICR mice [1]; 1.0 mg/kg orally,decreased
same,"improvement ratio, gait pattern CB",Slc:ICR mice [1]; 1.0 mg/kg orally,100%
same,"improvement ratio, maximum brightness ratio of the left hindpaw",Slc:ICR mice [1]; 1.0 mg/kg orally,111%
same,movement disorder induced by NAC61-95 treatment,Slc:ICR mice [1]; 1.0 mg/kg orally,improved
same,"maximum brightness ratio, left forepaw",Slc:ICR mice [1]; [3],51.5 ± 1.8
same,"maximum brightness ratio, left hindpaw",Slc:ICR mice [1]; [3],65.3 ± 1.7
same,"maximum brightness ratio, right forepaw",Slc:ICR mice [1]; [3],52.5 ± 2.4
same,"maximum brightness ratio, right hindpaw",Slc:ICR mice [1]; [3],61.9 ± 2.4
same,"print area, left forepaw",Slc:ICR mice [1]; [3],0.35 ± 0.02
same,"print area, left hindpaw",Slc:ICR mice [1]; [3],0.38 ± 0.04
same,"print area, right forepaw",Slc:ICR mice [1]; [3],0.33 ± 0.03
same,"print area, right hindpaw",Slc:ICR mice [1]; [3],0.38 ± 0.04
same,change in the maximum brightness ratio of the left hindpaw,"Slc:ICR mice [1]; 1.0 mg/kg orally, p<0.05, Student's t-test",significant increase
same,gait pattern (median) AA,"Slc:ICR mice [1]; median, 1.0 mg/kg orally",0.0
same,gait pattern (median) AB,"Slc:ICR mice [1]; median, 1.0 mg/kg orally",84.6
same,gait pattern (median) CA,"Slc:ICR mice [1]; median, 1.0 mg/kg orally",6.7
same,gait pattern (median) CB,"Slc:ICR mice [1]; median, 1.0 mg/kg orally",0.0
same,cognitive impairment by NAC61-95 treatment,Slc:ICR mice [2]; 1.0 mg/kg orally,improved
same,alternation behavior (%),Slc:ICR mice [2]; [3],66.4 ± 1.4%
same,alternation behavior as compared to the vehicle administration group,"Slc:ICR mice [2]; 1.0 mg/kg orally, p<0.05, Aspin-Welch test",significantly high
